Data reported in PubChem BioAssay AID248 (DTP/NCI, 2004).
Values joined by “and” are separate entries in the source; they are usually repeats but may differ in a detail not shown here. Identical values can stand only once. Toxic doses and inconclusive results are not listed. Cut-off read from the data, not from the text of the source: active = T/C of 150% or more; inactive = T/C below 125%.

System: L1210 leukemia ip in BDF1 mice, survival T/C
Test: NCI In Vivo Anticancer Drug Screen. Data for tumor model L1210 Leukemia (intraperitoneal) in B6D2F1 (BDF1) mice
Conditions: endpoint: mean survival time, higher = longer survival
Outline: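 Tumor cells were implanted, animals were treated, and survival was followed. The result divides the treated measurement by the vehicle-control measurement.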

[1] = dose: 100.0 mg/kg/injection, schedule: Q01DX009 (ip), vehicle: saline with Tween-80
[2] = dose: 100.0 mg/kg/injection, schedule: Q04DX003 (ip), vehicle: saline with Tween-80
[3] = dose: 200.0 mg/kg/injection, schedule: Q01DX009 (ip), vehicle: saline with Tween-80
[4] = dose: 200.0 mg/kg/injection, schedule: Q04DX003 (ip), vehicle: saline with Tween-80
[5] = dose: 400.0 mg/kg/injection, schedule: Q04DX003 (ip), vehicle: saline with Tween-80
[6] = dose: 100.0 mg/kg/injection, schedule: Q01DX001 (ip), vehicle: saline with Tween-80
[7] = dose: 200.0 mg/kg/injection, schedule: Q01DX001 (ip), vehicle: saline with Tween-80
[8] = dose: 400.0 mg/kg/injection, schedule: Q01DX001 (ip), vehicle: saline with Tween-80
[9] = dose: 100.0 mg/kg/injection, schedule: Q04DX002 (ip), vehicle: Klucel (hydroxypropylcellulose) (HPC)
[10] = dose: 100.0 mg/kg/injection, schedule: Q01DX009 (ip), vehicle: Klucel (hydroxypropylcellulose) (HPC)
[11] = dose: 100.0 mg/kg/injection, schedule: Q04DX003 (ip), vehicle: Klucel (hydroxypropylcellulose) (HPC)
[12] = dose: 200.0 mg/kg/injection, schedule: Q01DX009 (ip), vehicle: Klucel (hydroxypropylcellulose) (HPC)
[13] = dose: 200.0 mg/kg/injection, schedule: Q04DX002 (ip), vehicle: Klucel (hydroxypropylcellulose) (HPC)
[14] = dose: 200.0 mg/kg/injection, schedule: Q04DX003 (ip), vehicle: Klucel (hydroxypropylcellulose) (HPC)
[15] = dose: 400.0 mg/kg/injection, schedule: Q01DX009 (ip), vehicle: Klucel (hydroxypropylcellulose) (HPC)
[16] = dose: 400.0 mg/kg/injection, schedule: Q04DX003 (ip), vehicle: Klucel (hydroxypropylcellulose) (HPC)
[17] = dose: 50.0 mg/kg/injection, schedule: Q01DX009 (ip), vehicle: Klucel (hydroxypropylcellulose) (HPC)
[18] = dose: 100.0 mg/kg/injection, schedule: Q01DX001 (ip), vehicle: saline
[19] = dose: 200.0 mg/kg/injection, schedule: Q01DX001 (ip), vehicle: saline
[20] = dose: 400.0 mg/kg/injection, schedule: Q01DX001 (ip), vehicle: saline
[21] = dose: 50.0 mg/kg/injection, schedule: Q04DX002 (ip), vehicle: Klucel (hydroxypropylcellulose) (HPC)

Measured: T/C

O=C(CCCCl)CC(O)(C(F)(F)F)C(F)(F)F
inactive: [1] 104 % of control | [2] 101 % of control | [3] 93 % of control | [4] 94 % of control | [5] 100 % of control

Nc1cccc(CNc2ccc(C(=O)O)cc2)c1
inactive: [6] 113 % of control | [7] 103 % of control | [8] 98 % of control

CCCCC(=O)N1CCCC(C)C1 (stereo not drawn)
inactive: [9] 105 % of control

Cc1ccc([N+](=O)[O-])cc1NC(=O)N1CCCCC1C (stereo not drawn)
inactive: dose: 100.0 mg/kg/injection, schedule: Q01DX001 (ip), vehicle: Klucel (hydroxypropylcellulose) (HPC) 97 % of control | [10] 106 % of control and 90 % of control | [9] 97 % of control and 102 % of control | [11] 100 % of control | dose: 200.0 mg/kg/injection, schedule: Q01DX001 (ip), vehicle: Klucel (hydroxypropylcellulose) (HPC) 111 % of control | [12] 92 % of control and 97 % of control | [13] 97 % of control and 104 % of control | [14] 88 % of control | dose: 400.0 mg/kg/injection, schedule: Q01DX001 (ip), vehicle: Klucel (hydroxypropylcellulose) (HPC) 101 % of control | [15] 108 % of control and 87 % of control | dose: 400.0 mg/kg/injection, schedule: Q04DX002 (ip), vehicle: Klucel (hydroxypropylcellulose) (HPC) 93 % of control and 102 % of control | [16] 104 % of control

Cc1n(CCBr)c([N+](=O)[O-])c[n+]1C1N=C(c2ccccc2)c2cc(Cl)ccc2N(C)C1=O (stereo not drawn)
inactive: [17] 89 % of control | [10] 89 % of control | [12] 86 % of control

O=C1Nc2ccccc2C1=Nc1ccccc1-c1ccccc1
inactive: [18] 91 % of control | [19] 92 % of control | [20] 96 % of control

O=C(O)c1cccc([N+](=O)[O-])c1I
inactive: [1] 100 % of control | [3] 101 % of control | dose: 400.0 mg/kg/injection, schedule: Q01DX009 (ip), vehicle: saline with Tween-80 97 % of control

CC(=O)NC1C(OCC(NC(=O)OCc2ccccc2)C(=O)NC(CC(=O)OCc2ccccc2)C(=O)OCc2ccccc2)OC(COC(C)=O)C(OC(C)=O)C1OC(C)=O (stereo not drawn)
inactive: [21] 97 % of control | [9] 97 % of control | [13] 87 % of control

O=C(C1=CC(c2ccccc2)=Nc2ccccc2N1)c1ccccc1
inactive: dose: 100.0 mg/kg/injection, schedule: Q04DX003 (ip), vehicle: other 89 % of control | dose: 200.0 mg/kg/injection, schedule: Q04DX003 (ip), vehicle: other 110 % of control | dose: 400.0 mg/kg/injection, schedule: Q04DX003 (ip), vehicle: other 94 % of control

COC(=O)c1ccccc1N=NNc1ccc(-c2nc(N)nc(N)n2)cc1
inactive: [11] 100 % of control | [12] 100 % of control | [14] 94 % of control | [15] 100 % of control | [16] 95 % of control

O=C(O)CCCCCCC(=O)c1ccccc1
inactive: [6] 98 % of control | [7] 95 % of control | [8] 98 % of control

CCCCCCCCCCCC[N+](C)(C)CCn1cnc2c(N)ncnc21
inactive: dose: 6.25 mg/kg/injection, schedule: Q04DX003 (ip), vehicle: saline 106 % of control | dose: 12.5 mg/kg/injection, schedule: Q04DX003 (ip), vehicle: saline 109 % of control | dose: 25.0 mg/kg/injection, schedule: Q04DX003 (ip), vehicle: saline 103 % of control

O=c1ssc(=Nc2ccccc2)n1-c1ccccc1
inactive: dose: 100.0 mg/kg/injection, schedule: Q04DX003 (ip), vehicle: gum acacia 103 % of control | dose: 200.0 mg/kg/injection, schedule: Q04DX003 (ip), vehicle: gum acacia 104 % of control | dose: 400.0 mg/kg/injection, schedule: Q04DX003 (ip), vehicle: gum acacia 101 % of control

CCCCCCCCCCN1C(=O)C(Cl)=C(Cl)C1=O
inactive: dose: 25.0 mg/kg/injection, schedule: Q04DX003 (ip), vehicle: saline with Tween-80 103 % of control | dose: 50.0 mg/kg/injection, schedule: Q04DX003 (ip), vehicle: saline with Tween-80 94 % of control

Oc1ccccc1C1=NCCN1
inactive: [21] 102 % of control | [9] 95 % of control | [13] 91 % of control

Cc1cc(=O)[nH]c2c1CCCC2
inactive: [2] 92 % of control | [4] 97 % of control | [5] 101 % of control

FC1(F)C=C(c2ccccc2)C1(Cl)Cl
inactive: dose: 25.0 mg/kg/injection, schedule: Q01DX009 (ip), vehicle: Klucel (hydroxypropylcellulose) (HPC) 102 % of control | [17] 100 % of control | [10] 92 % of control and 98 % of control | [11] 107 % of control | [14] 113 % of control

Nc1nc(N)c(CCCOc2ccc(NC(=O)c3cccc(S(=O)OF)c3)cc2)c(N)n1 (stereo not drawn)
inactive: dose: 0.8 mg/kg/injection, schedule: Q01DX015 (ip), vehicle: saline 97 % of control | dose: 4.0 mg/kg/injection, schedule: Q01DX015 (ip), vehicle: saline 97 % of control | dose: 20.0 mg/kg/injection, schedule: Q01DX015 (ip), vehicle: saline 95 % of control | dose: 100.0 mg/kg/injection, schedule: Q01DX015 (ip), vehicle: saline 106 % of control | dose: 133.0 mg/kg/injection, schedule: Q01DX015 (ip), vehicle: saline 91 % of control

CC1=NN(c2ccccc2)C(=O)C1
inactive: dose: 50.0 mg/kg/injection, schedule: Q01DX001 (ip), vehicle: saline 94 % of control | [6] 104 % of control | [18] 94 % of control | [7] 101 % of control | [19] 90 % of control | [8] 101 % of control | [20] 102 % of control

CC(=O)NC(C)CCC(C)C (stereo not drawn)
inactive: [11] 101 % of control | [14] 100 % of control | [16] 101 % of control
